Patent US5767116A, “Bicyclic aromatic compounds as therapeutic agents” (Knoll Atkiengesellschaft, priority 1993, dated 1998)
Where a name gives a salt, the structure may show the parent alone. Read-outs that look alike come from different tables or passages of the source.

Columns and labels:
[1] = target: T1, α2-adrenoceptors (Rattus norvegicus, UniProt P22909); experiment: inhibition of tritiated ligand (tritiated idazoxan) binding to α2-adrenoceptors in vitro (frontal cortical tissue); set-up: species or system rat (male Charles River CD); conditions: for Ki: 0° C., 75 minutes, > from highest concentration which displaced ≤50% of the ligand
T1 sequence (P22909 1-465): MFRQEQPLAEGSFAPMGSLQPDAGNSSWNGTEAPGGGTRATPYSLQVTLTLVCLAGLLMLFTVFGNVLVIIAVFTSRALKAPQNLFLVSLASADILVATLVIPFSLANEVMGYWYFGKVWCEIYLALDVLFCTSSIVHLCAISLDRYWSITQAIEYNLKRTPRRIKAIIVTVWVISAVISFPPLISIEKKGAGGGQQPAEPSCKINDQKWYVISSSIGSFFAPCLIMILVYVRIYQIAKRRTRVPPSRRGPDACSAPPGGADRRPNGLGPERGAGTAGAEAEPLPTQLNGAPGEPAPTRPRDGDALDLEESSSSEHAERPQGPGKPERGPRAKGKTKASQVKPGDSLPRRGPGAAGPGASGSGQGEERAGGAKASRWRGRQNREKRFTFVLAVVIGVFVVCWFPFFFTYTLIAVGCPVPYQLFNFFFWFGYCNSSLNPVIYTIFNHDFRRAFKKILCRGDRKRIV
Description: Frontal cortical tissue from the brains of male Charles River CD rats weighing between 150-250 g were homogenised in ice-cold 0.25M sucrose (1:30 w/v) and centrifuged at 1,000 g at 4° C. for 12 minutes. The supernatant was stored on ice and the pellet was rehomogenised in 0.25M sucrose (1:15 w/v) and centrifuged at 850 g at 4° C. for 12 minutes. Combined supernatants were diluted with 5 mM Tris-HCl (pH 7.5) containing 0.5M ethylenediamine tetraacetic acid (EDTA) readjusted to pH 7.5 (at 25° C.) with 1M sodium hydroxide to 1:80 w/v, and centrifuged at 30,000 g at 4° C. for 10 minutes. The resulting pellet was resuspended in 5 mM Tris-HCl (pH 7.5) containing 5.68 mM L-ascorbic acid and 5 mM EDTA readjusted to pH 7.5 (at 25° C.) with 1M sodium hydroxide, and centrifuged at 30,000 g for 10 minutes. The final pellet was resuspended in 50 mM Tris-HCl (pH 7.5) containing 5.68 mM L-ascorbic acid and 5 mM EDTA (equivalent to 12.5 mg wet weight of tissue/ml) and used immediately in the binding assay. Aliquots (400 μl; equivalent to 5 mg wet weight of tissue/tube) of this suspension were added to tubes containing the ligand (50 μl; 1 nM) and distilled water (50 μl; total binding) or phentolamine (50 μl; 5 μM; non-specificbinding) or test compound (50 μl; at a single concentration of 10^-6 M or at 10 concentrations ranging from 10^-11 -10^-3 M). The ligand was tritiated idazoxan ((1,4-[6,7(n)-^3 H]benzodioxan-2-yl)-2-imidazoline hydrochloride) and the mixture was incubated at 0° C. for 75 minutes before the incubation was terminated by rapid filtration.
(§1) The filters were washed with ice-cold Tris-HCl buffer and dried. The filters were punched out into vials, scintillation fluid added and radioactivity determined by liquid scintillation counting. The percentage displacement of specific binding of the tritiated ligand was calculated for the single concentration (10^-6 M) of test compound. Displacement curves were then produced for those compounds which displaced ≥50% of specific binding of the tritiated ligand at 10^-6 M using a range of concentrations of the compound. […] The inhibition coefficient Ki was then calculated using the formula [formula] in which [ligand] is the concentration of the tritiated ligand used and KD is the equilibrium dissociation constant for the ligand.

[2] = tested on: α1-adrenoceptors; experiment: inhibition of tritiated ligand ([7-methoxy-^3 H]prazosin) binding to α1-adrenoceptors in vitro (whole cortical tissue); set-up: species or system rat (male Charles River CD); conditions: rat whole cortical tissue; for % displacement at 10^-6 M, α1: 30 min, 1 µM; for Ki: 30° C., 30 minutes, > from highest concentration which displaced ≤50% of the ligand
Description: The supernatant was centrifuged at 30,000 g at 4° C. for 10 minutes. […] Aliquots (400 μl; equivalent to 5 mg wet weight of tissue/tube) of this suspension were added to tubes containing the ligand (50 μl; 0.1 nM) and distilled water (50 μl; total binding) or phentolamine (50 μl; 5 μM; non-specific binding) or test compound (50 μl; at a single concentration of 10^-6 M or at 10 concentrations ranging from 10^-11 -10^-3 M). The ligand was [7-methoxy-^3 H]prazosin and the mixture was incubated at 30° C. for 30 minutes before the incubation was terminated by rapid filtration.
as §1, with “The” for “The filters were washed with ice-cold Tris-HCl buffer and dried. The”

[3] = target: T2, 5-HT1A receptors (Rattus norvegicus, UniProt P19327); experiment: biochemical; assay type: binding, rat (male Charles River CD); conditions: for Ki: 25° C., 30 minutes
T2 sequence (P19327 1-422): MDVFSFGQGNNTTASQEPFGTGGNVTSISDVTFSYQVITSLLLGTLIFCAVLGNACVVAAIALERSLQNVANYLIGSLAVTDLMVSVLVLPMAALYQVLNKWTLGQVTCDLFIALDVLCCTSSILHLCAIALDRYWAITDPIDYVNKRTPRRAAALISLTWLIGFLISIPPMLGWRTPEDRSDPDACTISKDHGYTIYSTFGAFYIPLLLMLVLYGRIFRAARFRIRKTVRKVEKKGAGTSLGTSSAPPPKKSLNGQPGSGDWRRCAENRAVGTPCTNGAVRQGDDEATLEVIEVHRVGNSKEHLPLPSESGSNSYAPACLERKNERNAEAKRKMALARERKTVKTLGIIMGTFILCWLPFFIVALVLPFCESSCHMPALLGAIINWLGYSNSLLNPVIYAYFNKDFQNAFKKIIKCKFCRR
Description: The pellet was rehomogenised in the same buffer, incubated at 37° C. for 10 minutes and centrifuged at 30,000 g at 4° C. for 10 minutes. […] Aliquots (400 μl; equivalent to 2.5 mg wet weight of tissue/tube) of this suspension were added to tubes containing the ligand (50 μl; 2 nM) and distilled water (50 μl; total binding) or 5-HT (50 μl; 10 µM; non-specific binding) or test compound (50 μl; at a single concentration of 10^-6 M or at 10 concentrations ranging from 10^-11 -10^-3 M). The ligand was [^3 H]8-hydroxy-2-(dipropylamino)tetralin([^3 H]8-OH-DPAT) and the mixture was incubated at 25° C. for 30 minutes before the incubation was terminated by rapid filtration.
as §1, with “The” for “The filters were washed with ice-cold Tris-HCl buffer and dried. The”

[4] = target: D2 dopamine receptors (Rattus norvegicus, UniProt P61169); experiment: biochemical; assay type: binding, rat (male Charles River CD); conditions: rat striatal tissue, tritiated (S)-sulpiride, 4° C., 40 minutes
[5] = 10^-6 M, rat frontal cortical tissue, tritiated idazoxan, read-out: % displacement at 10^-6 M, α2
[6] = 10^-6 M, rat hippocampal tissue, [^3 H]8-OH-DPAT, read-out: % displacement at 10^-6 M, 5-HT1A
[7] = read-out: % displacement at 10^-6 M, α2, 10^-6 M, rat frontal cortical tissue, tritiated idazoxan
[8] = read-out: % displacement at 10^-6 M, 5-HT1A, 10^-6 M, rat hippocampal tissue, [^3 H]8-OH-DPAT
[9] = rat frontal cortical tissue, tritiated idazoxan
[10] = rat hippocampal tissue, [^3 H]8-OH-DPAT

D2 dopamine receptors, sequence (P61169 whole entry): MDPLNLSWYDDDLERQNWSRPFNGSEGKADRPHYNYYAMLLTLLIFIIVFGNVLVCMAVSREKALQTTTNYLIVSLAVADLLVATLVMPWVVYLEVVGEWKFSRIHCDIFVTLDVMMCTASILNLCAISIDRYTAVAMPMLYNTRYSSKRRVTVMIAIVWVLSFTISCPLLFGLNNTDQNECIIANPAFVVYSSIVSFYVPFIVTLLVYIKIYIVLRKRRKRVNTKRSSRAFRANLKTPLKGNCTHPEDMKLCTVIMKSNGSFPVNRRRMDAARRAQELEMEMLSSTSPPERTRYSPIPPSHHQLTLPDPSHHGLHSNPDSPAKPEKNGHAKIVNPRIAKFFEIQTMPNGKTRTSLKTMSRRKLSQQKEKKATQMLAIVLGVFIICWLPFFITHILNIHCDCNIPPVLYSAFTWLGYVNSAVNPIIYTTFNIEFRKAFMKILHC

Row | Compound | inhibition at 1 µM [1, 5] | % displacement at 10^-6 M, α1 [2] | inhibition at 1 µM [3, 6] | inhibition at 1 µM [1, 7] | inhibition at 1 µM [3, 8] | Ki [1, 9] | Ki [2] | Ki [3, 10] | Ki [4]
1 | c1ccc(N2CCC(CNCC3COc4ccccc4O3)CC2)nc1 (single isomer, unassigned; (+)) [Example 20, (+)-N-(1,4-benzodioxan-2-ylmethyl)-1-[1-pyrid-2-yl)piperid-4-yl]methylamine dihydrochloride] | 91% | 94% | 82% | – | – | – | – | – | –
2 | Cl.Cl.c1ccc(N2CCC(CNCC3COc4ccccc4O3)CC2)nc1 (single isomer, unassigned; (-)) [Example 19, (-)-N-(1,4-benzodioxan-2-ylmethyl)-1-[1-(pyrid-2-yl)piperid-4-yl]methylamine dihydrochloride] | – | 98% | – | 96% | 98% | – | – | – | –
3 | c1ccc2c(c1)OCC(CNCC1CCN(c3cnccn3)CC1)O2 (centres unmarked) [Example 1, N-(1,4-benzodioxan-2-ylmethyl)-1-[1-(pyrazin-2-yl)piperid-4-yl]methylamine1.4 hydrochloride] | – | – | – | – | – | 31 nM | 23.9 nM | 14 nM | 15.6 nM
4 | COc1ccccc1N1CCC(CNCC2COc3ccccc3O2)CC1 (centres unmarked) [Example 2, N-(1,4-benzodioxan-2-ylmethyl)-1-[1-(2-methoxyphenyl)piperid-4-yl]methylamine dihydrochloride] | – | – | – | – | – | 394 nM | 78 nM | 7.7 nM | 19 nM
5 | Clc1cccnc1N1CCC(CNCC2COc3ccccc3O2)CC1 (centres unmarked) [Example 3, N-(1,4-benzodioxan-2-ylmethyl)-1-[1-(3-chloropyrid-2-yl)piperid-4-yl]methylamine 1.4 hydrochloride] | – | – | – | – | – | 86 nM | 38 nM | 1.9 nM | 45.3 nM
6 | c1ccc2c(c1)OCC(CNCC1CCN(c3ncnc4ccccc34)CC1)O2 (centres unmarked) [Example 4, N-(1,4-benzodioxan-2-ylmethyl)-1-[1-(quinazolin-4-yl)piperid-4-yl]methylamine dihydrochloride] | – | – | – | – | – | 30 nM | 13 nM | 3.8 nM | 35.8 nM
7 | c1ccc(N2CCC(CNCC3COc4ccccc4O3)CC2)nc1 (centres unmarked) [Example 5, N-(1,4-benzodioxan-2-ylmethyl)-1-[1-(pyrid-2-yl)piperid-4-yl]methylamine dihydrochloride] | – | – | – | – | – | 50 nM | 79 nM | 22.6 nM | 29 nM
8 | COc1ccccc1N1CCC(CNCC2COc3cccc(OC)c3O2)CC1 (centres unmarked) [Example 6, N-(8-methoxy-1,4-benzodioxan-2-ylmethyl)-1-[1-(2-methoxyphenyl)piperid-4-yl]methylamine dihydrochloride] | – | – | – | 92% | – | – | 3.7 nM | 252 nM | 8.5 nM
9 | COc1ccccc1N1CCC(CNC[C@H]2COc3ccccc3O2)CC1 [Example 7, (S)-(-)-N-(1,4-benzodioxan-2-ylmethyl)-1-[1-(2-methoxyphenyl)-piperid-4-yl]methylamine] | 72% | 94% | 96% | – | – | – | – | – | –
10 | Cl.Cl.c1ccc(N2CCC(CNCC3COc4ccccc4O3)CC2)cc1 (centres unmarked) [Example 12, N-(1,4-benzodioxan-2-ylmethyl)-1-(1-phenylpiperid-4-yl)methylamine dihydrochloride] | – | 89% | – | 66% | 97% | – | – | – | –
11 | Cl.Cl.c1ccc2c(c1)OCC(CNCC1CCN(c3cccc4c3OCCO4)CC1)O2 (centres unmarked) [Example 13, N-(1,4-benzodioxan-2-ylmethyl)-1-[1-(1,4-benzodioxan-5-yl)piperid-4-yl]methylamine dihydrochloride] | – | 93% | – | 66% | 100% | – | – | – | –
12 | COc1ccccc1N1CCC(CNC[C@@H]2COc3ccccc3O2)CC1 [Example 14, (R)-(+)-N-(1,4-benzodioxan-2-ylmethyl)-1-[1-(2-methoxyphenyl)piperid-4-yl]methylamine] | – | 57% | 87% | – | – | > 500 nM | – | – | –
13 | COc1ccccc1NCC1CCN(CC2COc3ccccc3O2)CC1.O=C(O)C(=O)O (centres unmarked) [Example 15, 1-[1-(1,4-benzodioxan-2-ylmethyl)piperid-4-yl]-N-(2-methoxyphenyl)methylamine mono-oxalate] | – | 94% | – | 94% | 97% | – | – | – | –
14 | COc1ccc(N2CCC(CNCC3COc4ccccc4O3)CC2)cc1.Cl.Cl (centres unmarked) [Example 16, N-(1,4-benzodioxan-2-ylmethyl)-1-[1-(4-methoxyphenyl)piperid-4-yl]methylamine dihydrochloride] | – | 94% | – | 64% | 98% | – | – | – | –
15 | COc1cccc(N2CCC(CNCC3COc4ccccc4O3)CC2)c1 (centres unmarked) [Example 18, N-(1,4-benzodioxan-2-ylmethyl)-1-[1-(3-methoxyphenyl)piperid-4-yl]methylamine hydrochloride] | – | – | – | – | – | 242 nM | – | 7 nM | –
16 | COc1ccccc1N1CCC(CNCC2COc3cccc(O)c3O2)CC1 (centres unmarked) [Example 28, N-(8-hydroxy-1,4-benzodioxan-2-ylmethyl) -1-[1-(2-methoxyphenyl)piperid-4-yl]methylamine] | – | – | 94% | – | – | > 500 nM | > 500 nM | – | –
